# In ChEMBL document CHEMBL5257110, “Recent developments of imidazo[1,2-a]pyridine analogues as antituberculosis agents” (RSC Med Chem, 2023):
# Experiments:
# [1] = tested on: Mycobacterium tuberculosis; experiment: Antimycobacterial activity against Mycobacterium tuberculosis H37Rv; type: functional
# [2] = tested on: Mycobacterium tuberculosis; experiment: Antimycobacterial activity against drug-sensitive Mycobacterium tuberculosis H37Rv; type: functional
# [3] = tested on: Mycobacterium tuberculosis; experiment: Antimycobacterial activity against Mycobacterium tuberculosis 7H12; type: functional
# [4] = tested on: Mycolicibacterium smegmatis; experiment: Antimycobacterial activity against Mycobacterium smegmatis; type: functional
# [5] = Cytotoxicity against CHO-K1 cells; type: toxicity, cell-based, Cricetulus griseus; details: Chinese hamster
# [6] = tested on: Mycobacterium tuberculosis; experiment: Antimycobacterial activity against replicating Mycobacterium tuberculosis H37Rv; type: functional
# [7] = tested on: Mycobacterium tuberculosis; experiment: Antibacterial activity against non-replicating Mycobacterium tuberculosis H37Rv-LUX assessed as inhibition of bacterial growth incubated for 9 days under anaerobic conditions followed by 28 hrs under aerobic conditions by LORA assay; type: functional; details: time 244 hrs
# [8] = Cytotoxicity against African green monkey Vero cells assessed as reduction in cell viability; type: toxicity, cell-based, Chlorocebus sabaeus; details: for IC50: African green monkey
# [9] = Aqueous solubility of the compound; type: physicochemical; details: aqueous medium
# [10] = Microsomal stability in human liver microsomes assessed as half life; type: ADME, Microsome
# [11] = tested on: Mycobacterium tuberculosis; experiment: Antimycobacterial activity against Mycobacterium tuberculosis Erdman infected in BALB/c mouse model assessed as log reduction of bacterial load in lung at 200 mg/kg, po administered 5 days a week for 30 days untill day 58; type: functional; details: time 58 day
# [12] = tested on: Mycobacterium tuberculosis; experiment: Antimycobacterial activity against drug-sensitive Mycobacterium tuberculosis V4207; type: functional
# [13] = tested on: Mycobacterium tuberculosis; experiment: Antimycobacterial activity against MDR-Mycobacterium tuberculosis KZN494; type: functional
# [14] = tested on: Mycobacterium tuberculosis; experiment: Antimycobacterial activity against MDR-Mycobacterium tuberculosis V2475; type: functional
# [15] = tested on: Mycobacterium tuberculosis; experiment: Antimycobacterial activity against XDR-Mycobacterium tuberculosis R506; type: functional
# [16] = tested on: Mycobacterium tuberculosis; experiment: Antimycobacterial activity against XDR-Mycobacterium tuberculosis TF274; type: functional
# [17] = Selectivity index, ratio of IC50 for cytotoxicity against African green monkey Vero cells to MIC90 for antimycobacterial activity against drug-sensitive Mycobacterium tuberculosis H37Rv; type: toxicity, cell-based; details: read-out: Selectivity Index
# [18] = Selectivity index, ratio of IC50 for cytotoxicity against African green monkey Vero cells to MIC90 for antimycobacterial activity against drug-sensitive Mycobacterium tuberculosis V4207; type: toxicity, cell-based; details: read-out: Selectivity Index
# [19] = Selectivity index, ratio of IC50 for cytotoxicity against African green monkey Vero cells to MIC90 for antimycobacterial activity against MDR-Mycobacterium tuberculosis KZN494; type: toxicity, cell-based; details: read-out: Selectivity Index
# [20] = Selectivity index, ratio of IC50 for cytotoxicity against African green monkey Vero cells to MIC90 for antimycobacterial activity against MDR-Mycobacterium tuberculosis V2475; type: toxicity, cell-based; details: read-out: Selectivity Index
# [21] = Selectivity index, ratio of IC50 for cytotoxicity against African green monkey Vero cells to MIC90 for antimycobacterial activity against XDR-Mycobacterium tuberculosis R506; type: toxicity, cell-based; details: read-out: Selectivity Index
# [22] = Selectivity index, ratio of IC50 for cytotoxicity against African green monkey Vero cells to MIC90 for antimycobacterial activity against XDR-Mycobacterium tuberculosis TF274; type: toxicity, cell-based; details: read-out: Selectivity Index
structure (smiles),measurement,setting,value
Cc1ccn2c(C(=O)NCc3ccccc3)c(C)nc2c1,MIC99,[1],0.2 µM
Cc1ccc2nc(C)c(C(=O)NCc3cccs3)n2c1,MIC90,[2],0.22 µM
CC(C)(C)OC(=O)N1CCN(c2nc(=O)c3cc(C(F)(F)F)cc([N+](=O)[O-])c3s2)CC1,MIC90,[3],0.28 µM
Cc1ccn2nc(C)c(C(=O)NCc3ccc(C(F)(F)F)cc3)c2c1,MIC90,[1],0.069 µM
COc1ccn2nc(C)c(C(=O)NCc3ccc(N4CCC(c5ccc(OC(F)(F)F)cc5)CC4)cc3)c2c1,MIC90,[1],0.011 µM
Cc1ccn2c(C(=O)N3CCN(c4nc(=O)c5cc(C(F)(F)F)cc([N+](=O)[O-])c5s4)CC3)c(C)nc2c1,MIC90,[3],2.1 µM
Cc1ccn2c(C(=O)NCc3ccc(C(=O)OCc4ccccc4)cc3)c(C)nc2c1,MIC90,[3],0.21 µM
Cc1ccn2c(C(=O)NCc3ccc(C(=O)N4CCN(c5nc(=O)c6cc(C(F)(F)F)cc([N+](=O)[O-])c6s5)CC4)cc3)c(C)nc2c1,MIC90,[3],> 10 µM
Cc1nc(-c2ccc(F)cc2)sc1-c1cn2ccccc2n1,MIC90,[4],90.2 µM
N#Cc1cccc(Nc2cc(C(F)(F)F)ccc2-c2cnc3ccccn23)c1,IC50,[5],217 µM
same,MIC90,[1],6.08 µM
Cc1cn2c(C(=O)NCc3ccc(N4CCN(c5ccc(OC(F)(F)F)cc5)CC4)c(F)c3)c(C)nc2s1,MIC90,[6],8 nM
same,MIC90,[7],1.1 µM
same,CC50,[8]; chlorocebus sabaeus,> 100 µM
same,solubility,[9],50 µM
same,half-life,[10],28 min
same,Activity,[11],0.3 log10CFU
Cc1nc(-c2ccc(F)cc2)sc1-c1cn2ccc(Br)cc2n1,MIC90,[4],53.6 µM
CCc1ccn2c(C(=O)NCc3ccc(C)cc3)c(C)nc2c1,MIC90,[6],4 nM
Cc1ccc(CNC(=O)Cc2c(C)nc3ccc(C)cn23)cc1,MIC90,[1],1.7 µM
Cc1nc(-c2ccccc2)sc1-c1cn2ccc(Br)cc2n1,MIC90,[4],67.5 µM
Cc1ccc2nc(C)c(C(=O)NCCCC3CCCCC3)n2c1,IC50,[8],120 µM
same,MIC90,[2],0.1 µM
same,MIC90,[12],0.1 µM
same,MIC90,[13],0.05 µM
same,MIC90,[14],0.2 µM
same,MIC90,[15],0.1 µM
same,MIC90,[16],0.2 µM
same,selectivity ratio,[17],≥ 1024
same,selectivity ratio,[18],≥ 1024
same,selectivity ratio,[19],≥ 1024
same,selectivity ratio,[20],≥ 1024
same,selectivity ratio,[21],≥ 1024
same,selectivity ratio,[22],≥ 1024
Cc1nc2ccc(Cl)cn2c1C(=O)NCCCC1CCCCC1,IC50,[8],≥ 191 µM
same,MIC90,[2],0.19 µM
same,MIC90,[12],0.37 µM
same,MIC90,[13],0.09 µM
same,MIC90,[14],0.37 µM
same,MIC90,[15],0.75 µM
same,MIC90,[16],1.5 µM
same,selectivity ratio,[17],≥ 1024
same,selectivity ratio,[18],≥ 1024
same,selectivity ratio,[19],≥ 1024
same,selectivity ratio,[20],≥ 1024
same,selectivity ratio,[21],≥ 1024
same,selectivity ratio,[22],≥ 1024
Cc1ccc(-c2nc3ccc(C)cn3c2CC(=O)N(C)C)cc1 [ZOLPIDEM],MIC90,[6],10000 nM
